{"source": "paper PMC3646541", "about": "(Nature protocols, 2011)", "tested_on": "four of the six Bcl-2 family proteins", "test": "Multiplex flow cytometry competition dose-response against F-Bim", "format": "binding", "conditions": "constant 50 nM F-Bim, dose-response series (Fig. 2b)", "data": [{"smiles": "CN(C)CC[C@H](CSc1ccccc1)Nc1ccc(S(=O)(=O)NC(=O)c2ccc(N3CCN(Cc4ccccc4-c4ccc(Cl)cc4)CC3)cc2)cc1[N+](=O)[O-]", "note": "[ABT-737]", "values": [{"measurement": "ability to block F-Bim binding", "value": "block F-Bim binding to four of them at relatively low concentrations"}]}]}
